For 1 compound, IC50 results are on record in US7750003B2, “Compounds-943” (AstraZeneca AB, priority 2006, dated 2010).

One experiment addresses T1, p110α Type Ia human PI3K (Homo sapiens, UniProt P42336).
T1 construct: full length DNA of each of the p110α, p110β and p110δ Type Ia human PI3K p110 isoforms; 6-His; made in house
As to the kind of experiment: In vitro PI3K enzyme assay (Test (b), AlphaScreen), p110α. It is filed as biochemical. As to conditions: ATP 4 μM, read-out: Test (b): IC50 versus p110α Type Ia human PI3K. From the text: (b) In Vitro PI3K Enzyme Assay
The assay used AlphaScreen technology (Gray et al., Analytical Biochemistry, 2003, 313: 234-245) to determine the ability of test compounds to inhibit phosphorylation by recombinant Type I PI3K enzymes of the lipid PI(4,5)P2.
DNA fragments encoding human PI3K catalytic and regulatory subunits were isolated from cDNA libraries using standard molecular biology and PCR cloning techniques. The selected DNA fragments were used to generate baculovirus expression vectors. In particular, full length DNA of each of the p110α, p110β and p110δ Type Ia human PI3K p110 isoforms (EMBL Accession Nos. HSU79143, S67334, Y10055 for p110α, p110β and p110δ respectively) were sub-cloned into a pDEST10 vector (Invitrogen Limited, Fountain Drive, Paisley, UK). The vector is a Gateway-adapted version of Fastbac1 containing a 6-His epitope tag. […]
Biotinylated-DiC8-PI(3,4,5)P3 (50 nM; Cell Signals Inc., Catalogue No. 107), recombinant purified GST-Grp1 PH protein (2.5 nM) and AlphaScreen Anti-GST donor and acceptor beads (100 ng; Packard Bioscience Limited, Station Road, Pangbourne, Berkshire, UK, Catalogue No. 6760603M) were added and the assay plates were left for about 5 to 20 hours at room temperature in the dark. The resultant signals arising from laser light excitation at 680 nm were read using a Packard AlphaQuest instrument. […]
For orientation: In Alpha technology, singlet oxygen from a donor bead excites a nearby acceptor bead.

Experiment [1] has as its target recombinant mTOR (FLAG-tagged, residues 1362-2549) (Homo sapiens, UniProt P42345). As to the kind of experiment: In vitro mTOR kinase assay (Test (a), AlphaScreen). It counts as biochemical. As to conditions: ATP 20 μM, read-out: Test (a): IC50 versus mTOR kinase. In outline:
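AlphaScreen read-out: a phospho-T389 p70 S6K antibody on acceptor beads captures the phosphorylated biotin-peptide on donor beads, with signal loss indicating inhibition.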

Molecules are shown by their SMILES. Values joined by “and” are separate entries in the source; they are usually repeats but may differ in a detail not shown here. Equal values may be shown once.

Chain of recombinant mTOR (FLAG-tagged, residues 1362-2549) (P42345 1362-2549): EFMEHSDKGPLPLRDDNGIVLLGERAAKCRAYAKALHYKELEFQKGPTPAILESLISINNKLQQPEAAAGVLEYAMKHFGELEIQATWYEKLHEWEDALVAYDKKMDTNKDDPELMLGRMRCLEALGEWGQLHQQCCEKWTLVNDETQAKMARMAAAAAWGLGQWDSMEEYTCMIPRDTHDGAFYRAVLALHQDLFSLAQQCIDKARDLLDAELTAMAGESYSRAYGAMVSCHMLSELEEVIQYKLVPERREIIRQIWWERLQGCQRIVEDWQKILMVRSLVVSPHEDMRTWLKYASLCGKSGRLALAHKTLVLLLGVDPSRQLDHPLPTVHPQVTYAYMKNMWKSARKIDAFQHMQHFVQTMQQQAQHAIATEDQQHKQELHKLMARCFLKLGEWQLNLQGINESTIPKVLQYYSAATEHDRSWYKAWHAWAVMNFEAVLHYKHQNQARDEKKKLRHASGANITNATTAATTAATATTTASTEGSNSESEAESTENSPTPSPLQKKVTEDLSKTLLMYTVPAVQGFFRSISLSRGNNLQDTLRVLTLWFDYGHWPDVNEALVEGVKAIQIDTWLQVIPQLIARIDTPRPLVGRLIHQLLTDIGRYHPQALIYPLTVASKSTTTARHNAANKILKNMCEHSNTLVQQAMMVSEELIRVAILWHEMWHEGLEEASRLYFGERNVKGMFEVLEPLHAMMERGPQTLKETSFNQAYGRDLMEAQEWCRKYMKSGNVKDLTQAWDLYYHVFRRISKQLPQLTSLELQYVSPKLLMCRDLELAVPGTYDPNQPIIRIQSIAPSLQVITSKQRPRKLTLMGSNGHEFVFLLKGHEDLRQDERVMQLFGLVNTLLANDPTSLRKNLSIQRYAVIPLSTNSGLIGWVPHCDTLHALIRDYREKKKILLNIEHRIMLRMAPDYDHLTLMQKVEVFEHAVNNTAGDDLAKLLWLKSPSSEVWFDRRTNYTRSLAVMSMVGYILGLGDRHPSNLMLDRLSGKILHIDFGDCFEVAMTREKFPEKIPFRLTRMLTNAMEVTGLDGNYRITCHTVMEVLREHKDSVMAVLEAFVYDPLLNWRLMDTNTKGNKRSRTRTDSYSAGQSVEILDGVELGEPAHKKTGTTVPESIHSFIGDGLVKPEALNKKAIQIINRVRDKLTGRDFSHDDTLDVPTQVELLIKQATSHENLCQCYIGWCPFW
T1 sequence (P42336 whole entry, canonical isoform): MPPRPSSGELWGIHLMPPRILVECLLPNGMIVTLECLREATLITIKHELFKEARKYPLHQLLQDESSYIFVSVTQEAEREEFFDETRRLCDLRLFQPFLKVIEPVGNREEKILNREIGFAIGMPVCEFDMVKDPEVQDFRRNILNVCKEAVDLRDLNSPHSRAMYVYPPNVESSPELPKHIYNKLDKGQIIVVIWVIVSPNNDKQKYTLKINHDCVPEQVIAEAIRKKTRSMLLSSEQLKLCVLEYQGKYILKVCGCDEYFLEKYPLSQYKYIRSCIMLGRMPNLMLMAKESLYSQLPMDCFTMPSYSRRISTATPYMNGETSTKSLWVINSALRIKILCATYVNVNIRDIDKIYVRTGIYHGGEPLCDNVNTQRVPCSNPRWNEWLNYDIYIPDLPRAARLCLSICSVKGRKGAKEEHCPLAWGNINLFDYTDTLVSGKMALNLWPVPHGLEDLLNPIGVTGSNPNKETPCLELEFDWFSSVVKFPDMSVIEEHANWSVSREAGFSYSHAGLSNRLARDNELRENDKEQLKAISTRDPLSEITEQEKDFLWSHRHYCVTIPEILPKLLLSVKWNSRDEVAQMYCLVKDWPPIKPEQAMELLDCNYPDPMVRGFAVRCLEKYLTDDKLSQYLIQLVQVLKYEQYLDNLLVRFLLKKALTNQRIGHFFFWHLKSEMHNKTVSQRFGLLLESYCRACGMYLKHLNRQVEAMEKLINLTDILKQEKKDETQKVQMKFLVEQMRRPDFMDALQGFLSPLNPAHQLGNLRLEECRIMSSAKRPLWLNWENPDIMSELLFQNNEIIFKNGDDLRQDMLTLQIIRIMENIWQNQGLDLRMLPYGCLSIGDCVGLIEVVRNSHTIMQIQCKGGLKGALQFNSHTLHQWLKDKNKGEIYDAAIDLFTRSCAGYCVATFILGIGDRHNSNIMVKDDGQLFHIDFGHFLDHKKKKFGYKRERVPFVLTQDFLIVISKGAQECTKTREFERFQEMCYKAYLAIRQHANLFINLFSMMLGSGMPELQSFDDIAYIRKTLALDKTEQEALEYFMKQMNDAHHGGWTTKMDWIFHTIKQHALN
T1 sequence (P27986 whole entry partner, canonical isoform): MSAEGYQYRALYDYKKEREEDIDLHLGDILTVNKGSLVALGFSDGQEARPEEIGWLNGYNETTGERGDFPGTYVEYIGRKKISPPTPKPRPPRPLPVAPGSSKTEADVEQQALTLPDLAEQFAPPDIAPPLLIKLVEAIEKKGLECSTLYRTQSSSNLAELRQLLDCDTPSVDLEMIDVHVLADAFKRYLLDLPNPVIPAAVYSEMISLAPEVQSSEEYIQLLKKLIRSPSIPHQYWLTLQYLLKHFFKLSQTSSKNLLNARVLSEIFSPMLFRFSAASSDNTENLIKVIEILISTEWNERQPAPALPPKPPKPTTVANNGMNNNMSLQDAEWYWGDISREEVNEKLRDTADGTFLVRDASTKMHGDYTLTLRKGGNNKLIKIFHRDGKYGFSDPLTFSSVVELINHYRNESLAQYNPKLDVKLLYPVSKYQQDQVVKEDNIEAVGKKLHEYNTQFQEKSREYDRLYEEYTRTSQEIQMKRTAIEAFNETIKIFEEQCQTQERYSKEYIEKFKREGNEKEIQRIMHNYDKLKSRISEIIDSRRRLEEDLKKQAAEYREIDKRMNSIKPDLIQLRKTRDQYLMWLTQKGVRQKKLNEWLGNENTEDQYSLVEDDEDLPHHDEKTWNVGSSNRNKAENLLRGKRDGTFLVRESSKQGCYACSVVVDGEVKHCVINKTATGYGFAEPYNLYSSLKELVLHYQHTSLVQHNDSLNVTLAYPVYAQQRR

A word on the IC50: it is the point on the concentration scale where inhibition reaches its midpoint. For the compound `Cc1cc(NC(=O)Nc2ccc(-c3nc(CS(C)(=O)=O)cc(N4CCOCC4)n3)cc2)no1` [Example 34b, 1-(5-methyl-1,2-oxazol-3-yl)-3-[4-[4-(methylsulfonylmethyl)-6-morpholin-4-yl-pyrimidin-2-yl]phenyl]urea], the IC50 at p110α Type Ia human PI3K is 91200 nM and 57800 nM; in experiment [1], 120 nM and 155 nM and 93 nM.
